Biological target: T1, Robo1 (Roundabout receptor 1; Robo1-GFP) (Homo sapiens, UniProt Q9Y6N7)
T1 sequence (Q9Y6N7 60-265 limits assumed): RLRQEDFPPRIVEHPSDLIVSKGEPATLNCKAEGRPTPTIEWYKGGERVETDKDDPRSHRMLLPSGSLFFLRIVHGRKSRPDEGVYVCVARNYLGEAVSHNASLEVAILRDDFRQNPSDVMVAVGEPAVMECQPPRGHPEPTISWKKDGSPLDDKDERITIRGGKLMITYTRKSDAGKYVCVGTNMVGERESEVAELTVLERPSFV
Experiment: SPR, Biacore T100, Robo1 immobilised on CM5
Assay type: binding
Conditions: HBS-EP pH 7.4, 150 mM NaCl, 25 °C; Langmuir 1:1 fit

| Kd [µM] | Substance |
| --- | --- |
| ~20 | IdoA-GlcNS6S-IdoA-GlcNS6S [compound 19] |
| 4.8 | GlcA-GlcNS6S-IdoA-GlcNS-IdoA2S-GlcNS6S-IdoA-GlcNAc6S [compound 1] |
